#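 Compound exposure: 48 hours, 5 concentrations, 96-well plates. TGI denotes the concentration required for complete inhibition of growth.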
# Tests used:
# Assay in all cases: NCI-60 cell line screen, 48 h
# HS 578T breast = test system: HS 578T breast
# LOX IMVI melanoma = test system: LOX IMVI melanoma
# NCI-H522 lung = test system: NCI-H522 lung
# RPMI-8226 leukemia = test system: RPMI-8226 leukemia
# U251 CNS = test system: U251 CNS
# UACC-62 melanoma = test system: UACC-62 melanoma
# HOP-62 NSCLC = test system: HOP-62 NSCLC
# SR leukemia = test system: SR leukemia
# HT29 colon = test system: HT29 colon
# RXF 393 renal = test system: RXF 393 renal
# SN12C renal = test system: SN12C renal
# CCRF-CEM leukemia = test system: CCRF-CEM leukemia
# IGROV1 ovarian = test system: IGROV1 ovarian
# SNB-19 CNS = test system: SNB-19 CNS
# HCC-2998 colon = test system: HCC-2998 colon
# MDA-MB-231 breast = test system: MDA-MB-231 breast
# NCI-H23 lung = test system: NCI-H23 lung
# SF-539 CNS = test system: SF-539 CNS
# OVCAR-5 ovarian = test system: OVCAR-5 ovarian
# UACC-257 melanoma = test system: UACC-257 melanoma
# MDA-N = test system: MDA-N
# SK-MEL-28 melanoma = test system: SK-MEL-28 melanoma
# A498 renal = test system: A498 renal
# KM12 colon = test system: KM12 colon
# SF-295 CNS = test system: SF-295 CNS
# NCI-H460 lung = test system: NCI-H460 lung
# SNB-75 CNS = test system: SNB-75 CNS
# PC-3 prostate = test system: PC-3 prostate
# HL-60(TB) leukemia = test system: HL-60(TB) leukemia
# UO-31 renal = test system: UO-31 renal
# SF-268 CNS = test system: SF-268 CNS
# COLO 205 colon = test system: COLO 205 colon
# OVCAR-3 ovarian = test system: OVCAR-3 ovarian
# A549 NSCLC = test system: A549 NSCLC
# ACHN renal = test system: ACHN renal
# M14 melanoma = test system: M14 melanoma
# SK-MEL-5 melanoma = test system: SK-MEL-5 melanoma
# OVCAR-8 ovarian = test system: OVCAR-8 ovarian
# K-562 leukemia = test system: K-562 leukemia
# MALME-3M melanoma = test system: MALME-3M melanoma
# MOLT-4 leukemia = test system: MOLT-4 leukemia
# MDA-MB-435 = test system: MDA-MB-435
# NCI-H226 lung = test system: NCI-H226 lung
# DU-145 prostate = test system: DU-145 prostate
# HCT-116 colon = test system: HCT-116 colon
# SW-620 colon = test system: SW-620 colon
# CAKI-1 renal = test system: CAKI-1 renal
# HCT-15 colon = test system: HCT-15 colon
# 786-0 renal = test system: 786-0 renal
# TK-10 renal = test system: TK-10 renal
# EKVX NSCLC = test system: EKVX NSCLC
# OVCAR-4 ovarian = test system: OVCAR-4 ovarian
# HOP-92 NSCLC = test system: HOP-92 NSCLC
# NCI/ADR-RES ovarian = test system: NCI/ADR-RES ovarian
# SK-OV-3 ovarian = test system: SK-OV-3 ovarian
# MCF7 breast = test system: MCF7 breast
# SK-MEL-2 melanoma = test system: SK-MEL-2 melanoma
compound,measurement,setting,value
O=c1c2cc([N+](=O)[O-])ccc2[nH]n1Cc1ccccn1,TGI,HS 578T breast,> 100 µM
same,TGI,LOX IMVI melanoma,> 100 µM
same,TGI,NCI-H522 lung,> 100 µM
same,TGI,RPMI-8226 leukemia,> 100 µM
same,TGI,U251 CNS,> 100 µM
same,TGI,UACC-62 melanoma,> 100 µM
same,TGI,HOP-62 NSCLC,> 100 µM
same,TGI,SR leukemia,> 100 µM
same,TGI,HT29 colon,> 100 µM
same,TGI,RXF 393 renal,> 100 µM
same,TGI,SN12C renal,> 100 µM
same,TGI,CCRF-CEM leukemia,> 100 µM
same,TGI,IGROV1 ovarian,> 100 µM
same,TGI,SNB-19 CNS,> 100 µM
same,TGI,HCC-2998 colon,> 100 µM
same,TGI,MDA-MB-231 breast,> 100 µM
same,TGI,NCI-H23 lung,> 100 µM
same,TGI,SF-539 CNS,> 100 µM
same,TGI,OVCAR-5 ovarian,> 100 µM
same,TGI,UACC-257 melanoma,> 100 µM
same,TGI,MDA-N,> 100 µM
same,TGI,SK-MEL-28 melanoma,> 100 µM
same,TGI,A498 renal,> 100 µM
same,TGI,KM12 colon,> 100 µM
same,TGI,SF-295 CNS,> 100 µM
same,TGI,NCI-H460 lung,> 100 µM
same,TGI,SNB-75 CNS,> 100 µM
same,TGI,PC-3 prostate,> 100 µM
same,TGI,HL-60(TB) leukemia,> 100 µM
same,TGI,UO-31 renal,> 100 µM
same,TGI,SF-268 CNS,> 100 µM
same,TGI,COLO 205 colon,> 100 µM
same,TGI,OVCAR-3 ovarian,> 100 µM
same,TGI,A549 NSCLC,> 100 µM
same,TGI,ACHN renal,> 100 µM
same,TGI,M14 melanoma,> 100 µM
same,TGI,SK-MEL-5 melanoma,> 100 µM
same,TGI,OVCAR-8 ovarian,> 100 µM
same,TGI,K-562 leukemia,> 100 µM
same,TGI,MALME-3M melanoma,> 100 µM
same,TGI,MOLT-4 leukemia,> 100 µM
same,TGI,MDA-MB-435,> 100 µM
same,TGI,NCI-H226 lung,> 100 µM
same,TGI,DU-145 prostate,> 100 µM
same,TGI,HCT-116 colon,> 100 µM
same,TGI,SW-620 colon,> 100 µM
same,TGI,CAKI-1 renal,> 100 µM
same,TGI,HCT-15 colon,> 100 µM
same,TGI,786-0 renal,> 100 µM
same,TGI,TK-10 renal,> 100 µM
same,TGI,EKVX NSCLC,> 100 µM
same,TGI,OVCAR-4 ovarian,> 100 µM
same,TGI,HOP-92 NSCLC,> 100 µM
same,TGI,NCI/ADR-RES ovarian,> 100 µM
C/C1=C\[C@H](C)C[C@H](C)OC(=O)C[C@H](c2ccc(O)cc2)NC(=O)[C@H](Cc2ccc(O)c(I)c2)N(C)C(=O)[C@H](C)NC(=O)[C@@H](C)C1,TGI,HS 578T breast,0.245 µM
same,TGI,LOX IMVI melanoma,> 25 µM
same,TGI,NCI-H522 lung,> 25 µM
same,TGI,RPMI-8226 leukemia,> 25 µM
same,TGI,U251 CNS,6.9 µM
same,TGI,UACC-62 melanoma,8.77 µM
same,TGI,HOP-62 NSCLC,> 25 µM
same,TGI,SR leukemia,> 25 µM
same,TGI,HT29 colon,> 25 µM
same,TGI,SN12C renal,22.9 µM
same,TGI,CCRF-CEM leukemia,> 25 µM
same,TGI,IGROV1 ovarian,> 25 µM
same,TGI,SK-OV-3 ovarian,16.9 µM
same,TGI,SNB-19 CNS,> 25 µM
same,TGI,MDA-MB-231 breast,0.433 µM
same,TGI,NCI-H23 lung,> 25 µM
same,TGI,OVCAR-5 ovarian,> 25 µM
same,TGI,MDA-N,13.8 µM
same,TGI,SK-MEL-28 melanoma,> 25 µM
same,TGI,A498 renal,0.0948 µM
same,TGI,KM12 colon,> 25 µM
same,TGI,SF-295 CNS,> 25 µM
same,TGI,MCF7 breast,> 25 µM
same,TGI,SNB-75 CNS,10.3 µM
same,TGI,PC-3 prostate,> 25 µM
same,TGI,UO-31 renal,0.185 µM
same,TGI,SF-268 CNS,0.153 µM
same,TGI,COLO 205 colon,> 25 µM
same,TGI,OVCAR-3 ovarian,> 25 µM
same,TGI,A549 NSCLC,> 25 µM
same,TGI,ACHN renal,> 25 µM
same,TGI,M14 melanoma,> 25 µM
same,TGI,SK-MEL-5 melanoma,11.1 µM
same,TGI,OVCAR-8 ovarian,3.45 µM
same,TGI,K-562 leukemia,> 25 µM
same,TGI,MALME-3M melanoma,3.06 µM
same,TGI,MOLT-4 leukemia,> 25 µM
same,TGI,MDA-MB-435,5.18 µM
same,TGI,NCI-H226 lung,> 25 µM
same,TGI,DU-145 prostate,> 25 µM
same,TGI,HCT-116 colon,18.6 µM
same,TGI,SW-620 colon,> 25 µM
same,TGI,HCT-15 colon,> 25 µM
same,TGI,786-0 renal,> 25 µM
same,TGI,TK-10 renal,> 25 µM
same,TGI,EKVX NSCLC,6.84 µM
same,TGI,SK-MEL-2 melanoma,6.78 µM
same,TGI,OVCAR-4 ovarian,0.0186 µM
same,TGI,HOP-92 NSCLC,0.118 µM
same,TGI,NCI/ADR-RES ovarian,18.8 µM
